According to US8173657B2, “Imidazoquinoxaline compounds as immunomodulators” (Novartis AG, priority 2006, dated 2012):
pEC50: −log10 of the molar value.

Experiments:
Type in all cases: cell-based
TNF-α = test: Compound stimulation and multi-cytokine measurement (TNF-α production); settings: cytokine induction; FIG. 2: human PBMC TNF-α production; read-out: EC50 value with respect to agonism of TNF-α
Description: Human blood from one or multiple human donors were collected into the BD Vacutainer™ CPT tube with sodium citrate (BD, Franklin Lakes, N.J.), and spun for 20 minutes at 1600 g. After centrifugation, mononuclear cells in the top layer in the tubes were collected and then washed three times with PBS buffer. The washed cells were then reconstituted at a required cell concentration in complete RPMI containing 10% FBS plus 100 units/ml penicillin and 100 ug/ml streptomycin.
Human PBMC (hPBMC) (at 1 million cells/ml) or mouse spleen cells (at 5 million cells/ml) or human monocytic THP-1 cells (at 1 million cells/ml) were mixed with tested compounds such as imidazoquinoxalines at titrated compound concentrations in the complete RPMI medium. After the cell cultures were incubated for 24 hours at 37° C., 5% CO2, the culture supernatant was collected and assayed for the secreted cytokines in the presence of the compounds. […]
Due to the agonist nature of the compounds tested, compound ranking is based on potency in cell-based screens for cytokine induction. Briefly, the EC50 of each compound for a given cytokine is calculated relative to a reference composition (i.e. LPS or other potent immune stimulator). […] Rank-scoring of SMIP potency is calculated by dividing the maximum concentration of cytokine produced by the relative EC50 established for each compound indicated.

IL-6 = test: Compound stimulation and multi-cytokine measurement (IL-6 production); settings: cytokine induction; cell type not stated at the result; read-out: EC50 value with respect to agonism of IL-6
Description: Human PBMC (hPBMC) (at 1 million cells/ml) or mouse spleen cells (at 5 million cells/ml) or human monocytic THP-1 cells (at 1 million cells/ml) were mixed with tested compounds such as imidazoquinoxalines at titrated compound concentrations in the complete RPMI medium. After the cell cultures were incubated for 24 hours at 37° C., 5% CO2, the culture supernatant was collected and assayed for the secreted cytokines in the presence of the compounds. Human or mouse Beadlyte multi-cytokine flex kits (Upstate, Lake Placid, N.Y.) were used to measure the amount of the following cytokines: TNF-α and IL-6 according to the manufacturers instructions.
Due to the agonist nature of the compounds tested, compound ranking is based on potency in cell-based screens for cytokine induction. Briefly, the EC50 of each compound for a given cytokine is calculated relative to a reference composition (i.e. LPS or other potent immune stimulator). This value is then used as the divisor of the maximum level of cytokine produced (pg/ml) in the assay. Five parameter curve fitting of cytokine dose response curves to different SMIPs for the indicated cell populations is used to calculate EC50. Rank-scoring of SMIP potency is calculated by dividing the maximum concentration of cytokine produced by the relative EC50 established for each compound indicated.

human TLR8 = target: T1, human TLR8 (Homo sapiens, UniProt Q9NR97); test: TLR signaling, NF-kB luciferase reporter in transfected HEK293 cells; settings: HEK293 transfected with hTLR8, NF-kB luciferase; FIG. 1
T1 construct: host or cells: HEK293 cells (ATCC, CRL-1573)
T1 sequence (Q9NR97 27-1041): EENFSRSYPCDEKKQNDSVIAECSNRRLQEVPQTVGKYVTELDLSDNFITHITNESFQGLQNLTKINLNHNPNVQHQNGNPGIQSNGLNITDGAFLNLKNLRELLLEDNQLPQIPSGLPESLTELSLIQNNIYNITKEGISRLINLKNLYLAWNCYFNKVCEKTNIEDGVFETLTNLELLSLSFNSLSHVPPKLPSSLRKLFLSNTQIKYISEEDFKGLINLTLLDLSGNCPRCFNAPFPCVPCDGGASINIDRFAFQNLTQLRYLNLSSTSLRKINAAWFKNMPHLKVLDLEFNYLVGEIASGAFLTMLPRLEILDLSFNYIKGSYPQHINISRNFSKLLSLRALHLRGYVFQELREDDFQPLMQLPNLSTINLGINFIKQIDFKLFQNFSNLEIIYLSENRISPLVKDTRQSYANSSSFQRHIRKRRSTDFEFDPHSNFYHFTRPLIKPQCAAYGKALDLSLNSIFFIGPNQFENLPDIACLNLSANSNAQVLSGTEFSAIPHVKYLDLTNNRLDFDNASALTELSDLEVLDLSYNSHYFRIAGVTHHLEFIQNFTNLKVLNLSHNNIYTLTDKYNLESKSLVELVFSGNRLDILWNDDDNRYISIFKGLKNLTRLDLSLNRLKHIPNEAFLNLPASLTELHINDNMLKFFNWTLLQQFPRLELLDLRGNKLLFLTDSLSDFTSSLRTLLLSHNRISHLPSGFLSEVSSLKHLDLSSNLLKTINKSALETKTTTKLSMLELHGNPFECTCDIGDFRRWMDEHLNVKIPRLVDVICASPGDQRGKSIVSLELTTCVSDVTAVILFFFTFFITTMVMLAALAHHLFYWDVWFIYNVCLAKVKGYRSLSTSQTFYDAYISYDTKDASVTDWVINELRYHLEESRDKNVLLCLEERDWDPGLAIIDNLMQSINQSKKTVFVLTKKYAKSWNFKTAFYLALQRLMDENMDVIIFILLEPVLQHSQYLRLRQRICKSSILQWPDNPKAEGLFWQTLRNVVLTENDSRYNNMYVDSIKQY
Description: (§1) HEK293 cells (ATCC, CRL-1573) are seeded in a T75 flask at 3×10^6 in 20 ml of DMEM supplemented with 0.1 mM nonessential amino acid, 1 mM sodium pyruvate, 2 mM L-glutamine, penicillin-streptomycin, and 10% FCS. After overnight culturing, the cells are transfected with 1) pNFkB-TA-luciferase reporter (0.4 ug) (BD clontech, Palo Alto, Calif.), and with 2) with pGL4.74 (0.01 ug) that carries a TK promoter, not responsive to NF-kB stimulation, and carries a Renilla luciferase gene, used as an internal control (Promega, Wis.), and 3), separately with a following TLR construct (10 ug): human TLR (hTLR) 7, hTLR8, mouse TLR7 (mTLR7) puno constructs (Invivogene, CA), using Fugene 6 transfection reagent (Roche). The transfected cells after 24 hours transfection are collected and seeded in a 96-well and flat-bottom plate (1×10^4 cell/well) plate, and stimulated with the test compounds at the following concentrations: 30, 10, 3, 1, 0.3, 0.1, 0.03 uM. After overnight compound stimulation, the cells are assayed for expression of fly and renilla luciferases using Dual-Luciferase Reporter Assay System (Promega, WI). NF-kb activation is directly proportional to relative fly luciferase units, which is measured against the internal control renilla luciferase units.

mouse TLR7 = target: T2, mouse TLR7 (Mus musculus, UniProt P58681); test: as above; settings: HEK293 transfected with mTLR7, NF-kB luciferase; FIG. 1
T2 construct: host or cells: HEK293 cells (ATCC, CRL-1573)
T2 sequence (P58681 27-1050): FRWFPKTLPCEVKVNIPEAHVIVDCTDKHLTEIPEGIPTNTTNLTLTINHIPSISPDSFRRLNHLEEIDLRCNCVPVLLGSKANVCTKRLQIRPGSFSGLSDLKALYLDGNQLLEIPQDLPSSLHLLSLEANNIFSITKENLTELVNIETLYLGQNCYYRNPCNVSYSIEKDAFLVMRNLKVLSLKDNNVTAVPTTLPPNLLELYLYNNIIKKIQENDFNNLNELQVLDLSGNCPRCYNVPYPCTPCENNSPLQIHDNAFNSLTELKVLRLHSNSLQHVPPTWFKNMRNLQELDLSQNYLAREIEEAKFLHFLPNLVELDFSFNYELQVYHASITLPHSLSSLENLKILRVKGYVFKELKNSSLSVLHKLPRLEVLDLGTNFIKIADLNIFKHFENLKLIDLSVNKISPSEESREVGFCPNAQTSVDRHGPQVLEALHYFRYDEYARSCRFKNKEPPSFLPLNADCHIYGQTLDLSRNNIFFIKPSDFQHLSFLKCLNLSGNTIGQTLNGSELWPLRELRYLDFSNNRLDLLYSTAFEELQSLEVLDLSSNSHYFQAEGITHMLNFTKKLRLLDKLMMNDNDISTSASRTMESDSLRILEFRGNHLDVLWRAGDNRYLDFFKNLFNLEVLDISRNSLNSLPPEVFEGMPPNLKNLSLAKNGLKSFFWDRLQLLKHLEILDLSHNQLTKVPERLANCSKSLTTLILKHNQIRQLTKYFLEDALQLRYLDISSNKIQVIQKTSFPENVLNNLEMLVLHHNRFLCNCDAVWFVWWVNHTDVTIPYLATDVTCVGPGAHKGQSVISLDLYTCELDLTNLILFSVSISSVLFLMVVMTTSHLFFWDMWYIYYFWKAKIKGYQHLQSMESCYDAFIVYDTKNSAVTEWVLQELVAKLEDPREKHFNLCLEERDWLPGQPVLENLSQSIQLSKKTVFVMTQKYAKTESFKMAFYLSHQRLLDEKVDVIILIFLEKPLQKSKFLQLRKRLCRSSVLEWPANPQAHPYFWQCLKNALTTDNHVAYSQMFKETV
Description: as §1

human TLR7 = target: T3, human TLR7 (Homo sapiens, UniProt Q9NYK1); test: as above; settings: HEK293 transfected with hTLR7, NF-kB luciferase; FIG. 1
T3 construct: host or cells: HEK293 cells (ATCC, CRL-1573)
T3 sequence (Q9NYK1 27-1049): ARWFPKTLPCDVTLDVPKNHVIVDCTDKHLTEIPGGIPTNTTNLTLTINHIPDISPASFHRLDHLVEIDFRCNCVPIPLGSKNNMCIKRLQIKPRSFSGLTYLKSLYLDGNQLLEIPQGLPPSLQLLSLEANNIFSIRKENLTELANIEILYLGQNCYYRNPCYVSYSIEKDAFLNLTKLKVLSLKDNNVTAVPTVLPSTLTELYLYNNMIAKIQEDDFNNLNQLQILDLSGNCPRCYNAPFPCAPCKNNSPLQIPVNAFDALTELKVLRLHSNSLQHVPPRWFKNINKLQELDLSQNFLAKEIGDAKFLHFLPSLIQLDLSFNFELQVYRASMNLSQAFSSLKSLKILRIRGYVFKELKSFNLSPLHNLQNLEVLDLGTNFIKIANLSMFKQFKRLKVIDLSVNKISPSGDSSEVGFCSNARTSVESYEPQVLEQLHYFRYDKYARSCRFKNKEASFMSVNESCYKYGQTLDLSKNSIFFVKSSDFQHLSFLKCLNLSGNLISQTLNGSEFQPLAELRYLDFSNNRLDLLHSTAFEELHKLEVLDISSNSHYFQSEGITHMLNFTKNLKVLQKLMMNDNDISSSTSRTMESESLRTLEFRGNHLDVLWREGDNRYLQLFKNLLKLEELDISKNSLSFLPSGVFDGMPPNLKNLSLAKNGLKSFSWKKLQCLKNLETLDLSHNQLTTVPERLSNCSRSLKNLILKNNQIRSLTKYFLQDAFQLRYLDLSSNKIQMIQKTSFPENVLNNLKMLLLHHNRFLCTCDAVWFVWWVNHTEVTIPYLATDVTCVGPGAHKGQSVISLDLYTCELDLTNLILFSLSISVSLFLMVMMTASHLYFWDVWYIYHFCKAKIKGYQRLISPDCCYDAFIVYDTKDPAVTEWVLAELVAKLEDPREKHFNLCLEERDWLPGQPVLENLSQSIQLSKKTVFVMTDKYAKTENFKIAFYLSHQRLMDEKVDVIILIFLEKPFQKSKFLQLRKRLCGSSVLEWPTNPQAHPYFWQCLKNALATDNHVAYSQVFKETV
Description: as §1

| pEC50 (TNF-α) | pEC50 (IL-6) | stimulatory activity with human TLR8 (human TLR8) | stimulation of human TLR7 (human TLR7) | Structure (SMILES) | reactivity for mouse TLR7 (mouse TLR7) |
| --- | --- | --- | --- | --- | --- |
| > 4.82 | > 4.82 | little or no reactivity |  | CC(C)Cc1nc2c(N)nc3ccccc3n2c1CC(C)(C)O [Example 4, 1-(4-amino-2-isobutylimidazo[1,2-a]quinoxalin-1-yl)-2-methylpropan-2-ol] |  |
| > 4.82 | > 4.82 | stimulatory activity | activity for stimulation | CC(C)Cc1cn2c(n1)c(N)nc1ccccc12 [Example 3, 2-isobutylimidazo[1,2-a]quinoxalin-4-amine] | slightly more reactivity for mouse TLR7 than did the compound of Example 4 |
